We go through 2 compounds from patent publication US20230371508A1, “COMPOSITIONS AND METHODS FOR KILLING INSECT AND NON-INSECT PESTS” (The United States of America, as represented by the …, priority 2018, published 2023).

The test system of one series is D. suzukii. The experiment in a line: Insecticidal activity on larvae and pupae development and adult emergence in pre-infested blueberries (dip). As to conditions: for Adults / Larvae / Pupae: pre-infested berries soaked 2 min in 1% solution, assessed after 10 days at room temperature, mean of three replicates (standard error). The series is classed as in vivo, Drosophila suzukii. The procedure:
Impacts of MB and other compounds on D. suzukii control: To investigate the acute toxicity of some compounds of formula 1 against D. suzukii, a published procedure was followed (Cuthbertson, A. G. S., et al., Insects, 5: 488-498 (2014)). First, mixed-sex adults D. suzukii (100) were introduced into a plastic cage (30×30×30 cm) and reared on blueberries (100) for 4 days. After that, the infested blueberries were taken out from the cage. Half of the blueberries (50) were dipped in 100 mL aqueous emulsion of each compound listed in Table 1 at 1% concentration for 2 min as treatment, while the other half of the blueberries (50) were dipped in DI water for 2 min as blank control. Then the corresponding blueberries were separately taken out, placed in two different Petri dishes, and allowed to air dry for 2 h. Second, treatment and blank control blueberries were respectively stored in two plastic cups (32 oz) with closed caps and incubated at room temperature for 10 days. The emergence of adults was then subsequently assessed. The developments of larvae and pupae were further inspected by dissection of the treatment and blank control berries. Each treatment and blank control was repeated three times.

Another series has as its system H. halys nymphs. The series is described as follows: Nymphicidal toxicity, treated filter paper in glass vial. The series is classed as in vivo. The procedure: Toxicities of MB, some compounds of formula 1, and commercial pesticides on H. halys nymphs: The bioassays were carried out in glass vials (20 mL), following a published procedure (Nielsen, A. L., et al., J. Econ. Entomol., 101: 1439-1442 (2008)). Filter paper was cut into round shape pieces (2.4 cm diameter). 50 μL acetone solution of one derivative or commercial pesticide with different concentrations was loaded onto the filter paper evenly, and the filter paper was dried for 1 min and then put into the bottom of vial. A small piece of green bean was put on the filter paper in the vial as food source. Different stages of H. halys nymphs were introduced into the vial and capped with a cotton ball. For each stage, 30 nymphs were used for each amount. For the nymphs of the first instar, 10 nymphs were put into 1 vial. For the nymphs of the second and third instar, 5 nymphs were put into 1 vial. For the nymphs of the fourth instar, 3 nymphs were put into 1 vial. For the nymphs of the fifth instar, 2 nymphs were put into 1 vial. The mortality was assessed after 24 hr.

A further series relates to H. halys eggs. The series is described as follows: Ovicidal toxicity, direct spray on eggs. The series is classed as in vivo. The following applies: eggs sprayed, 10 days. The source says: Ovicidal toxicities of MB and some compounds of formula 1: The aqueous solutions of one of the compounds of formula 1 with designated concentrations with different concentrations of active ingredient (AI) were separately stored in glass spray bottles according to a published procedure (Cuthbertson 2014). The eggs (10 for H. halys and 100 for P. xylostella) were laid on filter papers in Petri dishes. Different aqueous insecticidal solutions were sprayed on the surfaces of different eggs three times (˜0.5 mL) to completely cover the treatment areas. Then the Petri dishes were covered with lids and maintained in a fume hood for 10 days. The Petri dishes were then inspected for presence of nymph/larvae development or numbers of unhatched eggs.

Another series relates to L. dispar larvae. The experiment in a line: Larvicidal toxicity, treated filter paper in Petri dish. The series is classed as in vivo. As to the method: Toxicities of MB and some compounds of formula 1 on L. dispar larvae: The bioassays were carried out in plastic Petri dish loaded with filter paper, following a published procedure (Nielsen 2008). 600 μL acetone solution of one derivative with different concentrations was loaded onto the filter paper (90 mm diameter) evenly, and the filter paper was dried for 2 min and then put into the bottom of Petri dish. 10 L. dispar larvae were put onto the Petri dish and covered with a lid. 30 larvae were used for each amount. The mortality was assessed after 24 hr.

Series [1] concerns S. invicta workers. The procedure: Fire ant bioassays were conducted in USDA, ARS Stoneville laboratory at 25° C., 80% R.H. with a 12:12 (L:D) photoperiod. Contact toxicities of MB and some compounds of formula 1 against fire ants: Topical application was used for contact toxicity bioassay. Only large workers were used for a purpose of relatively uniform body weight and ease of handling. For all compounds, acetone was used as a solvent. The solution was applied using a 0.779 μl capillary tube. Two experiments were conducted for assessing contact toxicity. […] In order to investigate the structure-activity relationship, LD50 values were also established for MB and EB. […] For each LD50 value, 5 doses of benzoates were used. Each dose was replicated 3 times. Each replicate consisted of 13 to 18 ants. Treated ants were placed in a 30-ml capped cup and dead ants were counted after 24 h.

Series [2] relates to S. invicta workers. The series is described as follows: Fumigant toxicity in sealed glass flask. As to conditions: Solenopsis invicta, 24 h. The series is classed as in vivo, Solenopsis invicta. The procedure:
A 250-ml glass flask (the whole volume is 280 ml) was used to house worker ants in fumigant toxicity bioassays. Two micro-liter of acetone solution of the tested compound was applied onto a paraffin film, which was used to seal the flask with ants. The treated spot of the paraffin film faced the inside of the flask. The upper part of the flask was coated with Fluon® to prevent ants from contacting the test material. Two experiments were conducted. […] LC50 value was established using 5 dosages. Each dosage was replicated 3 times for each of 3 colonies. Each replicate consisted of 15 to 26 ants. Ants that could not stand by themselves were considered dead. Dead ants were counted after 24 h.

For series [3] the following is noted: Sigma-Aldrich SDS; cited from earlier work.

SMILES strings stand for the structures. Values after ≈ are worked out from the molar mass of the structure shown. “Also recorded” adds a separate entry of the source. Read-outs that look alike come from different tables or passages of the source.

`COC(=O)c1cccc(OC)c1` [M3MOB, methyl 3-methoxybenzoate] returned an Adults in the series with D. suzukii of 0. In the series on D. suzukii, this compound returned a Larvae of 0. Further, the Pupae in the series on D. suzukii stood at 0. Moreover, the “LC50 (95% CL)” value is reported as 1.509 (1.322-1.792) μL/vial in the series on H. halys nymphs (3rd stage nymphs, 24 hr); 0.016 (0.008-0.026) mg/cm^2 in the series on H. halys eggs; 0.234 (0.216-0.258) mg/cm^2 in the series with L. dispar larvae (1st stage larvae, 24 hr). Further, the “decreased toxicities compared with MB” value with L. dispar larvae (from LC50 values) amounted to 50%. Moreover, the LD50 stood at 112.72 μg/ant in the series on S. invicta workers [1] (colony 1, 24 h); 81.78 μg/ant with S. invicta workers [1] (colony 2, 24 h); 47.52 μg/ant in the series on S. invicta workers [1] (colony 3, 24 h). In addition, in the series on S. invicta workers [1] (dose 77.9 μg/ant, 24 h), the “increase of mean mortality compared with MB” value is given as 6 times. For the same compound, the mean mortality with S. invicta workers [1] (dose 77.9 μg/ant, 24 h) worked out at 47.23%. The LC50 worked out at 0.64 µg/mL (≈ 3.85 µM) in the series with S. invicta workers [2] (colony 1, 24 h); 0.54 µg/mL (≈ 3.25 µM) in the series with S. invicta workers [2] (colony 2, 24 h); 0.65 µg/mL (≈ 3.91 µM) in the series with S. invicta workers [2] (colony 3, 24 h); 0.61 µg/mL (≈ 3.67 µM) with S. invicta workers [2] (read-out: mean LC50 value, mean over colonies, 24 h). Further, the mortality at 1.43 µg/mL in the series with S. invicta workers [2] (read-out: mean mortality, dosage 1.43 μg/ml, 24 h) was roughly 100%. Moreover, the “hazard according to Safety Data Sheet (SDS) from the producer” value in series [3] is reported as “not even considered as a hazardous substance”.
As to `CCCCCCOC(=O)c1ccccc1` [nHB, n-hexyl benzoate], the “insecticidal toxicity against D. suzukii (in words)” value in the series with D. suzukii (1% concentration on 4 days pre-infested blueberries, 10 days incubation) was “did not show any insecticidal activities”. In addition, the Adults in the series on D. suzukii is listed as 33.7(7.4). The Larvae in the series on D. suzukii is 7.0(1.0). For the same compound, in the series with D. suzukii, the Pupae is listed as 40.3(7.0). The “toxicity against H. halys nymphs (in words)” value with H. halys nymphs (in vivo) was “did not show toxicities”. Also, the “larvicidal toxicity against L. dispar (in words)” value with L. dispar larvae (in vivo) is on record as “did not show any toxicities”. Further, the LD50 amounted to 37.1 μg/ant in the series with S. invicta workers [1] (colony 1, 24 h); 42.23 μg/ant in the series on S. invicta workers [1] (colony 2, 24 h); 28.64 μg/ant in the series with S. invicta workers [1] (colony 3, 24 h). Also, the “contact toxicity against S. invicta (in words)” value with S. invicta workers [1] (in vivo) is “comparable results; also recorded: potent contact toxicities”. The “hazard according to Safety Data Sheet (SDS) from the producer” value in series [3] was “neither known OSHA hazards nor aquatic toxicity”.
